# Target: MMP-13 catalytic domain (Homo sapiens, UniProt P45452)
# Assay: Inhibition of MMP-13 catalytic domain (thiopeptolide substrate hydrolysis assay)
# Type: biochemical
# Details: compounds of Example 33, Biological Table 1; read-out: MMP-13CD IC50
# From the text: The assays measure the amount by which a test compound reduces the hydrolysis of a thiopeptolide substrate catalyzed by a matrix metalloproteinase enzyme. Such assays are described in detail by Ye et al., in Biochemistry, 1992;31(45):11231–11235, which is incorporated herein by reference. One such assay is described below in Biological Method 1.
# Thiopeptolide substrates show virtually no decomposition or hydrolysis at or below neutral pH in the absence of a matrix metalloproteinase enzyme. A typical thiopeptolide substrate commonly utilized for assays is Ac-Pro-Leu-Gly-thioester-Leu-Leu-Gly-OEt. A 100 μL assay mixture will contain 50 mM of N-2-hydroxyethylpiperazine-N′-2-ethanesulfonic acid buffer (“HEPES,” pH 7.0), 10 mM CaCl2, 100 μM thiopeptolide substrate, and 1 mM 5,5′-dithio-bis-(2-nitro-benzoic acid) (DTNB). The thiopeptolide substrate concentration may be varied, for example from 10 to 800 μM to obtain Km and Kcat values. The change in absorbance at 405 nm is monitored on a Thermo Max microplate reader (molecular Devices, Menlo Park, Calif.) at room temperature (22° C.). The calculation of the amount of hydrolysis of the thiopeptolide substrate is based on E412=13600 M^−1 cm^−1 for the DTNB-derived product 3-carboxy-4-nitrothiophenoxide. Assays are carried out with and without matrix metalloproteinase inhibitor compounds, and the amount of hydrolysis is compared for a determination of inhibitory activity of the test compounds.
# Test compounds were evaluated at various concentrations in order to determine their respective IC50 values, the micromolar concentration of compound required to cause a 50% inhibition of catalytic activity of the respective enzyme.
# Some representative compounds of Formula I have been evaluated for their ability to inhibit MMP-13. Inhibitor activity versus other MMPs with the compounds may be determined using, for example, MMP-1FL, which refers to full length interstitial collagenase; MMP-2FL, which refers to full length Gelatinase A; MMP-3CD, which refers to the catalytic domain of stromelysin; MMP-7FL, which refers to full length matrilysin; MMP-9FL, which refers to full length Gelatinase B; MMP-13CD, which refers to the catalytic domain of collagenase 3; and MMP-14CD, which refers to the catalytic domain of MMP-14. Test compounds can be evaluated at various concentrations in order to determine their respective IC50 values, the micromolar concentration of compound required to cause a 50% inhibition of the hydrolytic activity of the respective enzyme.
row,IC50 [µM],Structure (SMILES)
1,> 100,"Cc1c(SCc2nc3ccccc3[nH]2)[nH]c(=O)n(Cc2ccccc2)c1=O [Example 33q, 6-(1H-Benzimidazol-2-ylmethylsulfanyl)-3-benzyl-5-methyl-1H-pyrimidine-2,4-dione]"
2,> 30,"Cc1c(SCCC(=O)c2ccc(F)cc2)[nH]c(=O)n(Cc2ccccc2)c1=O [Example 33n, 3-Benzyl-6-[3-(4-fluoro-phenyl)-3-oxo-propylsulfanyl]-5-methyl-1H-pyrimidine-2,4-dione]"
3,> 30,"COc1ccc2nc(CSc3[nH]c(=O)n(Cc4ccccc4)c(=O)c3C)c(=O)oc2c1 [Example 33k, 3-Benzyl-6-(7-methoxy-2-oxo-2H-1,4-benzoxazin-3-ylmethylsulfanyl)-5-methyl-1H-pyrimidine-2,4-dione]"
4,> 30,"Cc1c(SCC(=O)c2cc(-c3ccc(Cl)cc3Cl)no2)[nH]c(=O)n(Cc2ccccc2)c1=O [Example 33t, 3-Benzyl-6-{2-[3-(2,4-dichloro-phenyl)-isoxazol-5-yl]-2-oxo-ethylsulfanyl}-5-methyl-1H-pyrimidine-2,4-dione]"
5,> 100,"Cc1c(SCc2ccccc2-c2ccccc2)[nH]c(=O)n(Cc2ccccc2)c1=O [Example 33u, 3-Benzyl-6-(biphenyl-2-ylmethylsulfanyl)-5-methyl-1 H-pyrimidine-2,4-dione]"
6,> 30,"Cc1c(SCC(=O)c2ccc(-c3ccccc3)cc2)[nH]c(=O)n(Cc2ccccc2)c1=O [Example 33p, 3-Benzyl-6-(2-biphenyl-4-yl-2-oxo-ethylsulfanyl)-5-methyl-1H-pyrimidine-2,4-dione]"
7,23,"Cc1onc(-c2ccccc2)c1C(=O)CSc1[nH]c(=O)n(Cc2ccccc2)c(=O)c1C [Example 33j, 3-Benzyl-5-methyl-6-[2-(5-methyl-3-phenyl-isoxazol-4-yl)-2-oxo-ethylsulfanyl]-1H-pyrimidine-2,4-dione]"
8,> 100,"Cc1c(SCCCC(=O)c2ccc(Br)cc2)[nH]c(=O)n(Cc2ccccc2)c1=O [Example 33r, 3-Benzyl-6-[4-(4-bromo-phenyl)-4-oxo-butylsulfanyl]-5-methyl-1H-pyrimidine-2,4-dione]"
9,18,"COc1ccc(C(=O)CSc2[nH]c(=O)n(Cc3ccccc3)c(=O)c2C)cc1 [Example 33v, 3-Benzyl-6-[2-(4-methoxy-phenyl)-2-oxo-ethylsulfanyl]-5-methyl-1H-pyrimidine-2,4-dione]"
10,> 100,"Cc1c(SCc2ccc3ccccc3c2)[nH]c(=O)n(Cc2ccccc2)c1=O [Example 33o, 3-Benzyl-5-methyl-6-(naphthalen-2-ylmethylsulfanyl)-1H-pyrimidine-2,4-dione]"
11,> 30,"Cc1c(SCC(=O)c2cc(-c3ccccc3)no2)[nH]c(=O)n(Cc2ccccc2)c1=O [Example 33l, 3-Benzyl-5-methyl-6-[2-oxo-2-(3-phenyl-isoxazol-5-yl)-ethylsulfanyl]-1H-pyrimidine-2,4-dione]"
12,> 100,"Cc1c(SCc2ccc3nc(C(F)(F)F)cc(Cl)c3c2)[nH]c(=O)n(Cc2ccccc2)c1=O [Example 33i, 3-Benzyl-6-(4-chloro-2-trifluoromethyl-quinolin-6-ylmethylsulfanyl)-5-methyl-1H-pyrimidine-2,4-dione]"

# Continued, compound first:
row,Structure (SMILES),IC50 [µM]
1,"Cc1c(SCC(=O)c2ccc(-c3ccccc3)cc2)n(C)c(=O)n(Cc2ccccc2)c1=O [Example 33f, 3-Benzyl-6-(2-biphenyl-4-yl-2-oxo-ethylsulfanyl)-1,5-dimethyl-1H-pyrimidine-2,4-dione]",> 100
2,"Cc1c(SCCOc2ccc(F)cc2)n(C)c(=O)n(Cc2ccccc2)c1=O [Example 33a, 3-Benzyl-6-[2-(4-fluoro-phenoxy)-ethylsulfanyl]-1,5-dimethyl-1H-pyrimidine-2,4-dione]",> 100
3,"COc1ccc(C(=O)CSc2c(C)c(=O)n(Cc3ccccc3)c(=O)n2C)cc1 [Example 33h, 3-Benzyl-6-[2-(4-methoxy-phenyl)-2-oxo-ethylsulfanyl]-1,5-dimethyl-1H-pyrimidine-2,4-dione]",> 100
4,"Cc1c(SCCCc2ccccc2)n(C)c(=O)n(Cc2ccccc2)c1=O [Example 33c, 3-Benzyl-1,5-dimethyl-6-(3-phenyl-propylsulfanyl)-1H-pyrimidine-2,4-dione]",> 100
5,"Cc1c(SCc2ccccc2-c2ccccc2)n(C)c(=O)n(Cc2ccccc2)c1=O [Example 33g, 3-Benzyl-6-(biphenyl-2-ylmethylsulfanyl)-1,5-dimethyl-1 H-pyrimidine-2,4-dione]",> 100
6,"Cc1c(SCc2ccc3nc(C(F)(F)F)cc(Cl)c3c2)n(C)c(=O)n(Cc2ccccc2)c1=O [Example 33b, 3-Benzyl-6-(4-chloro-2-trifluoromethyl-quinolin-6-ylmethylsulfanyl)-1,5-dimethyl-1H-pyrimidine-2,4-dione]",> 100
7,"Cc1c(SCCCCOc2ccccc2)[nH]c(=O)n(Cc2ccccc2)c1=O [Example 33s, 3-Benzyl-5-methyl-6-(4-phenoxy-butylsulfanyl)-1H-pyrimidine-2,4-dione]",> 100
8,"Cc1c(SCc2ccc3ccccc3c2)n(C)c(=O)n(Cc2ccccc2)c1=O [Example 33e, 3-Benzyl-1,5-dimethyl-6-(naphthalen-2-ylmethylsulfanyl)-1H-pyrimidine-2,4-dione]",> 100
9,"Cc1c(SCCCc2ccccc2)[nH]c(=O)n(Cc2ccccc2)c1=O [Example 33m, 3-Benzyl-5-methyl-6-(3-phenyl-propylsulfanyl)-1H-pyrimidine-2,4-dione]",> 100
10,"Cc1c(SCCC(=O)c2ccc(F)cc2)n(C)c(=O)n(Cc2ccccc2)c1=O [Example 33d, 3-Benzyl-6-[3-(4-fluoro-phenyl)-3-oxo-propylsulfanyl]-1,5-dimethyl-1H-pyrimidine-2,4-dione]",> 100

# Same assay, conditions: values in text, given as about; read-out: IC50 with MMP-13 catalytic domain
row,IC50 [µM],Structure (SMILES)
1,~2.1,"Cc1c(SCc2cc(-c3ccc(Cl)cc3)on2)[nH]c(=O)n(Cc2ccccc2)c1=O [Example 6, 3-Benzyl-6-[5-(4-chloro-phenyl)-isoxazol-3-ylmethylsulfanyl]-5-methyl-1H-pyrimidine-2,4-dione]"
2,~0.44,"COc1ccc2nc(Nc3[nH]c(=O)n(Cc4ccccc4)c(=O)c3C)sc2c1 [Example 29, 3-Benzyl-6-(6-methoxy-benzothiazol-2-ylamino)-5-methyl-1H-pyrimidine-2,4-dione]"
3,~0.44,"COc1ccc(-c2cc(CSc3[nH]c(=O)n(Cc4ccccc4)c(=O)c3C)on2)cc1 [Example 7, 3-Benzyl-6-[3-(4-methoxy-phenyl)-isoxazol-5-ylmethylsulfanyl]-5-methyl-1H-pyrimidine-2,4-dione]"
4,~1.2,"Cc1c(SCc2cc(-c3ccc(Cl)cc3)no2)[nH]c(=O)n(Cc2ccccc2)c1=O [Example 20, 3-Benzyl-6-[3-(4-chloro-phenyl)-isoxazol-5-ylmethylsulfanyl]-5-methyl-1H-pyrimidine-2,4-dione]"

# — patent US7160893B2, “Pyrimidine-2,4-dione derivatives as matrix metalloproteinase inhibitors” (Warner-Lambert Company, priority 2002, dated 2007)
